# Read-outs that look alike come from different tables or passages of the source.
# Assays:
# [1] = system: Escherichia coli K-12 MG1655; test: Screening for tolerance in wild-type cells: growth in varying concentrations of neutralized diacid, Biolector; format: cell-based; details: for tlag (lag time), mean / μ (growth rate), mean: neutralized with sodium hydroxide
# Protocol: Escherichia coli K-12 MG1655 was grown overnight in M9 minimal medium+1% glucose and subcultured the following morning to an initial OD600 of 0.05 in M9+1% glucose. Cells were grown to mid-exponential phase (OD600 0.7-1.0) and were back-diluted with fresh medium to an OD600 of 0.7. The diluted cells were used to inoculate M9+1% glucose containing varying concentrations of glutaric acid or adipic acid which were neutralized to pH 7.0 with sodium hydroxide, and growth was measured in FlowerPlates in a Biolector microbioreactor system (m2p-labs) at 37° C. with 1000 rpm shaking. The culture volume in each well was 1.4 mL.
# [2] = system: Escherichia coli K-12 MG1655 and evolved isolates; format: cell-based; details: 38 g/L sebacic acid
# Protocol: Five colonies from wild-type K-12 MG1655 and 10 individual colonies deriving from each population were inoculated into 300 μL M9+1% glucose in 96 well deepwell plates and incubated in a 300 rpm plate shaker at 37° C. The next day, cells were diluted 10× in M9+1% glucose and 30 μL was transferred into clear-bottomed 96 well half-deepwell plates (with rectangular wells) containing M9+1% glucose and M9+1% glucose+52.78 g/L glutaric acid or 55.56 g/L adipic acid, such that the final concentration of glutaric acid or adipic acid was 47.5 g/L or 50 g/L, respectively. In addition, cryogenic glycerol stocks of the overnight culture were saved in a 96 well plate format. Half deepwell plates were incubated at 37° C. with 225 rpm shaking in a Growth Profiler (Enzyscreen), with optical scans of the plates taken at 15 minute intervals. Green pixel values integrated over a 1 mm diameter circular area in each well were converted to OD600 values using a previously determined calibration between OD600 and green pixel values.
# Additionally, each evolved isolate was tested for cross-tolerance toward other dicarboxylic acids of interest. […] All diacids tested were either the neutral sodium salts, or the free diacid was neutralized with sodium hydroxide to pH 7.0 for testing.
smiles,measurement,setting,value
O=C(O)CCCCCCCCC(=O)O [sebacic acid],"tlag (lag time), mean",[1]; 10 g/L,1.9 h
same,"μ (growth rate), mean","[1]; 10 g/L, M9+1% glucose, 37° C",0.707 h⁻¹
same,"tlag (lag time), mean",[1]; 20 g/L,2.7 h
same,"μ (growth rate), mean",[1]; 20 g/L,0.578 h⁻¹
same,"tlag (lag time), mean",[1]; 25 g/L,3.3 h
same,"μ (growth rate), mean",[1]; 25 g/L,0.413 h⁻¹
same,"tlag (lag time), mean",[1]; 30 g/L,5.7 h
same,"μ (growth rate), mean",[1]; 30 g/L,0.386 h⁻¹
same,"tlag (lag time), mean",[1]; 35 g/L,10.8 h
same,"μ (growth rate), mean",[1]; 35 g/L,0.306 h⁻¹
same,"tlag (lag time), mean",[1]; 40 g/L,22.5 h
same,"μ (growth rate), mean",[1]; 40 g/L,0.222 h⁻¹
same,"tlag (lag time), mean",[1]; 45 g/L,50.6 h
same,"μ (growth rate), mean",[1]; 45 g/L,0.051 h⁻¹
same,growth of K-12 MG1655,[1]; above 40 g/L concentration,nearly no growth detected
same,growth rate μ (mean),[2]; strain ADIP1-1,0.244 h⁻¹
same,lag time tlag (mean),[2]; strain ADIP1-1,21.6 h
same,growth rate μ (mean),[2]; strain ADIP1-9,0.248 h⁻¹
same,lag time tlag (mean),[2]; strain ADIP1-9,17.8 h
same,growth rate μ (mean),[2]; strain ADIP2-5,0.315 h⁻¹
same,lag time tlag (mean),[2]; strain ADIP2-5,13.5 h
same,growth rate μ (mean),[2]; strain ADIP2-6,0.319 h⁻¹
same,lag time tlag (mean),[2]; strain ADIP2-6,12.9 h
same,growth rate μ (mean),[2]; strain ADIP2-10,0.290 h⁻¹
same,lag time tlag (mean),[2]; strain ADIP2-10,13.4 h
same,growth rate μ (mean),[2]; strain ADIP3-2,0.254 h⁻¹
same,lag time tlag (mean),[2]; strain ADIP3-2,17.6 h
same,growth rate μ (mean),[2]; strain ADIP3-4,0.262 h⁻¹
same,lag time tlag (mean),[2]; strain ADIP3-4,17.1 h
same,growth rate μ (mean),[2]; strain ADIP3-8,0.253 h⁻¹
same,lag time tlag (mean),[2]; strain ADIP3-8,19.8 h
same,growth rate μ (mean),[2]; strain ADIP4-1,0.308 h⁻¹
same,lag time tlag (mean),[2]; strain ADIP4-1,13.1 h
same,growth rate μ (mean),[2]; strain ADIP4-8,0.289 h⁻¹
same,lag time tlag (mean),[2]; strain ADIP4-8,12.8 h
same,growth rate μ (mean),[2]; strain ADIP5-2,0.288 h⁻¹
same,lag time tlag (mean),[2]; strain ADIP5-2,15.3 h
same,growth rate μ (mean),[2]; strain ADIP5-6,0.273 h⁻¹
same,lag time tlag (mean),[2]; strain ADIP5-6,20.7 h
same,growth rate μ (mean),[2]; strain ADIP6-3,0.268 h⁻¹
same,lag time tlag (mean),[2]; strain ADIP6-3,17.9 h
same,growth rate μ (mean),[2]; strain ADIP6-9,0.181 h⁻¹
same,lag time tlag (mean),[2]; strain ADIP6-9,23.1 h
same,growth rate μ (mean),[2]; strain ADIP6-10,0.267 h⁻¹
same,lag time tlag (mean),[2]; strain ADIP6-10,15.3 h
same,growth rate μ (mean),[2]; strain ADIP7-2,0.356 h⁻¹
same,lag time tlag (mean),[2]; strain ADIP7-2,11.1 h
same,growth rate μ (mean),[2]; strain ADIP7-5,0.353 h⁻¹
same,lag time tlag (mean),[2]; strain ADIP7-5,12.0 h
same,growth rate μ (mean),[2]; strain ADIP8-3,0.171 h⁻¹
same,lag time tlag (mean),[2]; strain ADIP8-3,28.9 h
same,growth rate μ (mean),[2]; strain ADIP8-7,0.157 h⁻¹
same,lag time tlag (mean),[2]; strain ADIP8-7,30.9 h
same,growth rate μ (mean),[2]; strain ADIP8-10,0.165 h⁻¹
same,lag time tlag (mean),[2]; strain ADIP8-10,30.0 h
same,growth rate μ (mean),[2]; strain GLUT1-3,0.074 h⁻¹
same,lag time tlag (mean),[2]; strain GLUT1-3,34.9 h
same,growth rate μ (mean),[2]; strain GLUT1-9,0.043 h⁻¹
same,lag time tlag (mean),[2]; strain GLUT1-9,44.7 h
same,growth rate μ (mean),[2]; strain GLUT1-10,0.278 h⁻¹
same,lag time tlag (mean),[2]; strain GLUT1-10,20.6 h
same,growth rate μ (mean),[2]; strain GLUT2-1,0.153 h⁻¹
same,lag time tlag (mean),[2]; strain GLUT2-1,21.7 h
same,growth rate μ (mean),[2]; strain GLUT2-9,0.282 h⁻¹
same,lag time tlag (mean),[2]; strain GLUT2-9,12.5 h
same,growth rate μ (mean),[2]; strain GLUT2-10,0.093 h⁻¹
same,lag time tlag (mean),[2]; strain GLUT2-10,29.8 h
same,growth rate μ (mean),[2]; strain GLUT3-5,0.106 h⁻¹
same,lag time tlag (mean),[2]; strain GLUT3-5,20.0 h
same,growth rate μ (mean),[2]; strain GLUT3-7,0.068 h⁻¹
same,lag time tlag (mean),[2]; strain GLUT3-7,6.4 h
same,growth rate μ (mean),[2]; strain GLUT3-9,0.158 h⁻¹
same,lag time tlag (mean),[2]; strain GLUT3-9,18.9 h
same,growth rate μ (mean),[2]; strain GLUT4-1,0.266 h⁻¹
same,lag time tlag (mean),[2]; strain GLUT4-1,32.9 h
same,growth rate μ (mean),[2]; strain GLUT4-4,0.265 h⁻¹
same,lag time tlag (mean),[2]; strain GLUT4-4,34.2 h
same,growth rate μ (mean),[2]; strain GLUT4-10,0.113 h⁻¹
same,lag time tlag (mean),[2]; strain GLUT4-10,20.1 h
same,growth rate μ (mean),[2]; strain GLUT5-4,0.183 h⁻¹
same,lag time tlag (mean),[2]; strain GLUT5-4,37.7 h
same,growth rate μ (mean),[2]; strain GLUT5-5,0.117 h⁻¹
same,lag time tlag (mean),[2]; strain GLUT5-5,54.9 h
same,growth rate μ (mean),[2]; strain GLUT5-9,0.143 h⁻¹
same,lag time tlag (mean),[2]; strain GLUT5-9,58.2 h
same,growth rate μ (mean),[2]; strain GLUT6-4,0.085 h⁻¹
same,lag time tlag (mean),[2]; strain GLUT6-4,26.4 h
same,growth rate μ (mean),[2]; strain GLUT6-5,0.123 h⁻¹
same,lag time tlag (mean),[2]; strain GLUT6-5,21.6 h
same,growth rate μ (mean),[2]; strain GLUT6-10,0.132 h⁻¹
same,lag time tlag (mean),[2]; strain GLUT6-10,26.2 h
same,growth rate μ (mean),[2]; strain GLUT7-2,0.173 h⁻¹
same,lag time tlag (mean),[2]; strain GLUT7-2,17.5 h
same,growth rate μ (mean),[2]; strain GLUT7-6,0.141 h⁻¹
same,lag time tlag (mean),[2]; strain GLUT7-6,18.9 h
same,growth rate μ (mean),[2]; strain GLUT7-7,0.112 h⁻¹
same,lag time tlag (mean),[2]; strain GLUT7-7,20.0 h
same,growth rate μ (mean),[2]; strain GLUT8-5,0.300 h⁻¹
same,lag time tlag (mean),[2]; strain GLUT8-5,21.4 h
same,growth rate μ (mean),[2]; strain GLUT8-6,0.464 h⁻¹
same,lag time tlag (mean),[2]; strain GLUT8-6,13.7 h
same,growth rate μ (mean),[2]; strain GLUT8-9,0.471 h⁻¹
same,lag time tlag (mean),[2]; strain GLUT8-9,14.5 h
same,growth rate μ (mean),[2]; strain MG1655 (Table 28),0.167 h⁻¹
same,lag time tlag (mean),[2]; strain MG1655 (Table 28),26.9 h
same,growth rate μ (mean),[2]; strain MG1655 (Table 29),0.135 h⁻¹
same,lag time tlag (mean),[2]; strain MG1655 (Table 29),28.2 h

# Reference: patent US20230139445A1, “BACTERIAL CELLS WITH IMPROVED TOLERANCE TO DIACIDS” (priority 2016, published 2023)
